The numbers were not newly measured in patent US5500226A, “Pharmaceutical composition having analgesic activity” (Zambon Group S.p.A., priority 1993, dated 1996), which cites them from elsewhere.

SMILES strings stand for the structures.

For this data set the following is noted: in words; vs Ibuprofen.

Turning to `CC(C)Cc1ccc([C@H](C)C(=O)O)cc1` [(S)-Ibuprofen, S(+)-2-(4-isobutylphenyl)propionic acid], the Analgesic effect result was “more rapid, and consequently a more lasting, analgesic effect than Ibuprofen”.
